{
  "source": "patent US11883503B2",
  "about": "“Methods and compositions for cancer treatment” (DINGFU BIOTARGET CO., LTD., priority 2017, dated 2024)",
  "test_system": "peripheral blood lymphocytes",
  "assay": "Flow cytometry of CD4+ and CD8+ lymphocytes in peripheral blood after FTY720",
  "type": "in vivo, mice",
  "settings": "3 days after first administration of FTY720",
  "protocol": "FTY720 (SIGMA, Cat #SML0700-5MG) was used to test activation of T cells in the tumor microenvironment. FTY720 is a lipophilic immunomodulatory sphingosine-1-phosphate analog, it induces severe peripheral blood lymphopenia and sustains lymphopenia in mice by preventing lymphocytes to egress from lymph organs through agonist-induced receptor internalization.\nB16-EGFR-SIY cells were inoculated s.c. into the both flanks of mice. […] Then 3 days later, after the first administration of depletion antibodies or FTY720, lymphocytes suspensions were prepared from their peripheral blood, and labeled with APC-anti-mCD4 (clone GK1.5, BioLegend), FITC-anti-mCD8a (clone 53-6.7, BioLegend), FITC-anti-mCD3 (clone 17A2, BioLegend), or APC-anti-mNK1.1 (clone PK136, BioLegend). Tumor volumes on the both flanks were measured and monitored. Samples were analyzed on a Life Attune Flow Cytometer (Life), and data were analyzed. Representative data is shown in FIG. 6C-6F, based on results obtained from three experiments conducted with 5-6 mice per group.",
  "data": [
    {"smiles": "CCCCCCCCc1ccc(CCC(N)(CO)CO)cc1", "note": "[FTY720]", "values": [
      {"measurement": "relative number of CD4+ T cells in peripheral blood", "value": "~1.5", "unit": "%"},
      {"measurement": "relative number of CD8+ T cells in peripheral blood", "value": "about 0.5%"}
    ]}
  ]
}
